In patent US8435582B2, “Beverage preservative system containing Pimaricin-Povidone complex” (PepsiCo, Inc., priority 2009, dated 2013):
≈ marks a conversion by molar mass, not a printed value. Where two headings read alike, the source gives them in different places.

Legend:
[1] = physchem; type: physicochemical
Source text: (§1) A 2% fruit juice based non-carbonated beverage of pH 3.4 and about 12 Brix was formed by combining the following ingredients.
(§2) The preparation of beverage was divided into two aliquots.

[2] = test system: Byssochlamys fulva ATCC 10099; test: 16 week MIC of un-complexed Pimaricin in 2% juice beverage, mold spores; type: cell-based; settings: Paecilomyces fulvus, ATCC10099; beverage pH 3.4, 25° C., 20 spores/ml, spores from Potato Dextrose 25 °C; read-out: 16 week incubation MIC
[3] = test system: Aspergillus niger isolate of Pepsi; test: as above; type: cell-based; settings: beverage pH 3.4, 25° C., 20 spores/ml, spores from Potato Dextrose 25 °C, read-out: 16 week incubation MIC
Source text: as §1, §2
(§3) The tubes were sealed in a manner that prohibits moisture evaporation.
(§4) The mold spores employed were obtained from the following organisms. Aspergillus niger isolate of Pepsi; ATCC strain 90900 (Talaromyces spectabilis), ATCC strain 48441 (Pencillium galbrum), ATCC 24088 (Byssochlamys fulva), ATCC 96468 (Neosartorya fischeri) ATCC strain 96463 (Talaromyces flavus) and ATCC strain ATCC 10512 (Talaromyces flavus var. flavus). Each spore type was present at 20 spores per milliliter.

[4] = test system: Neosartorya fischeri ATCC 96468; test: as above; type: cell-based; settings: Aspergillus fischeri, ATCC96468; beverage pH 3.4, 25° C., 20 spores/ml, spores from Potato Dextrose 25 °C; read-out: 16 week incubation MIC
Source text: as §1, §2, §3, §4

[5] = test system: Penicillium glabrum ATCC 48441; test: as above; type: cell-based; settings: ATCC48441, beverage pH 3.4, 25° C., 20 spores/ml, spores from Potato Dextrose 25 °C, read-out: 16 week incubation MIC
Source text: as §1, §2, §3, §4

[6] = test system: Talaromyces flavus var flavus ATCC 10512; test: as above; type: cell-based; settings: ATCC10512, beverage pH 3.4, 25° C., 20 spores/ml, spores from Potato Dextrose 25 °C, read-out: 16 week incubation MIC
Source text: as §1, §2, §3, §4

[7] = test system: Talaromyces spectabilis ATCC 90900; test: as above; type: cell-based; settings: Paecilomyces variotii, ATCC90900; beverage pH 3.4, 25° C., 20 spores/ml, spores from Potato Dextrose 25 °C; read-out: 16 week incubation MIC
Source text: as §1, §2, §3, §4

[8] = test system: Tataromyces flavus ATCC 96463; test: as above; type: cell-based; settings: Talaromyces flavus, ATCC96463; beverage pH 3.4, 25° C., 20 spores/ml, spores from Potato Dextrose 25 °C; read-out: 16 week incubation MIC
Source text: as §1, §2, §3, §4

[9] = test system: Brettanomyces Pepsi Isolate; test: Growth inhibitory effect of Pimaricin, beverage medium containing 5% DMSO; type: cell-based; settings: 2688 h, 5% DMSO beverage pH 3.4, 25° C., PDA, read-out: Observed MIC (16 week)
Source text: as §1, §2
(§5) The second aliquot of beverage is identical to the first aliquot except for the presence of pimaricin. It also contains 5% DMSO. […] The tubes were sealed in a manner that prohibits moisture evaporation.
(§6) Yeast employed in the study are Zygosaccharomyces bisporus (ATCC 52407) Zygosaccharomyces bailii (ATCC 60484), Saccharomyces cerevisiae (Pepsi Isolate Y99), Brettanomyces (Pepsi Isolate Chemy 7UP), and Zygosaccharomyces (Pepsi Isolate Y2).
(§7) The mold spores employed were obtained from the following organisms Paecilomyces variotii (Pepsi isolate D16), Penicillium camembertii (Pepsi isolate M3), (Talaromyces flavus var. flavus (ATCC 10512), Byssochlamys nieva (ATCC 36614), and Byssochlamys fulva ATCC 10099). Each spore type was present initially at 20 spores per milliliter of product. Spores for a couple of strains of mold (such as Byssochlamys nieva) were developed at both 25° C. on Potato Dextrose and 30° C. on Malt Extract in order to ensure some variation in the ratio of asci (ascospores) to conidiospores.

[10] = test system: Byssochlamys fulva ATCC 10099; test: as above; type: cell-based; settings: Paecilomyces fulvus, ATCC10099, pH 3.4, 5% DMSO beverage pH 3.4, 25° C., read-out: Observed MIC (16 week)
Source text: as §1, §2, §5, §6, §7

[11] = test system: Byssochlamys nieva ATCC 36614; test: as above; type: cell-based; settings: 2688 h; 5% DMSO beverage pH 3.4, 25° C.; spores generated on PDA at 25 °C; read-out: Observed MIC (16 week)
Source text: as §1, §2, §5, §6, §7

[12] = test system: Paecilomyces variotii Pepsi Isolate; test: as above; type: cell-based; settings: pH 3.4, 5% DMSO beverage pH 3.4, 25° C., read-out: Observed MIC (16 week)
Source text: as §1, §2, §5, §6, §7

[13] = test system: Penicillium camembertii Pepsi Isolate; test: as above; type: cell-based; settings: pH 3.4, 5% DMSO beverage pH 3.4, 25° C., read-out: Observed MIC (16 week)
Source text: as §1, §2, §5, §6, §7

[14] = test system: Saccharomyces cerevisiae Pepsi Isolate; test: as above; type: cell-based; settings: 5% DMSO beverage pH 3.4, 25° C., PDA, read-out: Observed MIC (16 week)
Source text: as §1, §2, §5, §6, §7

[15] = test system: Talaromyces flavus var flavus ATCC 10512; test: as above; type: cell-based; settings: spores generated on PDA at 25 °C
Source text: as §1, §2, §5, §6, §7

[16] = test system: Zygosaccharomyces bailli ATCC 60484; test: as above; type: cell-based; settings: ATCC60484, 5% DMSO beverage pH 3.4, 25° C., PDA, read-out: Observed MIC (16 week)
Source text: as §1, §2, §5, §6, §7

[17] = test system: Zygosaccharomyces bailli Pepsi Isolate; test: as above; type: cell-based; settings: 5% DMSO beverage pH 3.4, 25° C., PDA, read-out: Observed MIC (16 week)
Source text: as §1, §2, §5, §6, §7

[18] = test system: Zygosaccharomyces bisporus ATCC 52407; test: as above; type: cell-based; settings: ATCC52407, 5% DMSO beverage pH 3.4, 25° C., PDA, read-out: Observed MIC (16 week)
Source text: as §1, §2, §5, §6, §7

[19] = test system: mold fungi; test: Preservation of beverage product for 16 weeks, Pimaricin stand alone; type: cell-based; settings: Pimaricin as the only antimicrobial substance (stand alone)
[20] = 25° C., pH approximately 6.4; cited from earlier work
[21] = spores generated on MEA at 30 °C
[22] = spores generated on PDA at 25 °C

- solubility ([1]; 4 °C, pH 3.4, aqueous buffer, thermodynamic from solid, solubility limit in high acid beverage): 10 µg/mL (≈ 15 µM)
- solubility at 24 h ([1]; 25 °C, pH 3.4, aqueous buffer, thermodynamic from solid, solubility limit in high acid beverage): 20 µg/mL (≈ 30 µM)
- solubility limit in high acid beverage ([1]; 24 h, pH 3.4): about 20 mg/L
- MIC [2]: 16.9 µg/mL
- MIC [3]: 18.4 µg/mL
- MIC [5]: 5.7 µg/mL
- MIC [6]: > 20 µg/mL
- MIC [7]: 10.3 µg/mL
- MIC [8]: > 20 µg/mL
- MIC [9]: 2.5 µg/mL (≈ 3.76 µM)
- MIC [10, 21]: 7.9 µg/mL (≈ 11.9 µM)
- MIC [10, 22]: 2 µg/mL (≈ 3 µM)
- MIC [11]: 46 µg/mL (≈ 69.1 µM)
- MIC [12, 21]: > 72 µg/mL
- MIC [12, 22]: 58.3 µg/mL (≈ 87.6 µM)
- MIC [13, 21]: 65 µg/mL (≈ 97.6 µM)
- MIC [13, 22]: 6.4 µg/mL (≈ 9.61 µM)
- MIC [14]: 2.5 µg/mL (≈ 3.76 µM)
- Observed MIC (16 week) ([15]; 5% DMSO beverage pH 3.4, 25° C.): >72 ppm
- MIC ([15]; Talaromyces flavus, ATCC10512, pH 3.4, 5% DMSO beverage pH 3.4, 25° C., read-out: Observed MIC (16 week)): 72 µg/mL (≈ 108 µM)
- MIC [16]: 2.5 µg/mL (≈ 3.76 µM)
- MIC [17]: 2.5 µg/mL (≈ 3.76 µM)
- MIC [18]: 2.5 µg/mL (≈ 3.76 µM)
SMILES: C[C@@H]1C/C=C/C=C/C=C/C=C/[C@H](O[C@@H]2O[C@H](C)[C@@H](O)[C@H](N)[C@@H]2O)C[C@@H]2O[C@](O)(C[C@@H](O)C[C@H]3O[C@@H]3/C=C/C(=O)O1)C[C@H](O)[C@H]2C(=O)O [Pimaricin]
- MIC [4]: > 20 µg/mL
- minimum initial concentration needed to preserve product for 16 weeks [19]: 280 mg Pimaricin per liter
- solubility in pure water [20]: 52 µg/mL (≈ 78.1 µM)
